{"source": "PubChem BioAssay (NCI)", "assay_in_all_cases": "growth of human tumour cells (NCI), 48 h", "key": {"M19-MEL melanoma": {"tested_on": "M19-MEL melanoma"}, "HOP-18 NSCLC": {"tested_on": "HOP-18 NSCLC"}, "LXFL 529 NSCLC": {"tested_on": "LXFL 529 NSCLC"}, "KM20L2 colon": {"tested_on": "KM20L2 colon"}, "XF 498 CNS": {"tested_on": "XF 498 CNS"}, "RXF-631 renal": {"tested_on": "RXF-631 renal"}}, "note": "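Exposure lasted 48 hours, with cells grown in 96-well plates and compounds tested at five concentrations. The concentration for full growth arrest is given as TGI.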", "data": [{"molecule": "COc1cc2c(cc1OC)C(Cl)C(c1ccc(Cl)c(Cl)c1)=C2Cl", "note": "(stereo not drawn)", "values": [{"measurement": "TGI", "setting": "M19-MEL melanoma", "result": 32.2, "unit": "µM"}, {"measurement": "TGI", "setting": "HOP-18 NSCLC", "result": 37, "unit": "µM"}, {"measurement": "TGI", "setting": "LXFL 529 NSCLC", "result": 17.2, "unit": "µM"}, {"measurement": "TGI", "setting": "KM20L2 colon", "result": 25.7, "unit": "µM"}]}, {"molecule": "CCOC(=O)Cc1cc(OC)c(OC)cc1/C(Cl)=C(\\C=O)c1ccc(OC)c(OC)c1", "values": [{"measurement": "TGI", "setting": "M19-MEL melanoma", "result": 55.6, "unit": "µM"}, {"measurement": "TGI", "setting": "XF 498 CNS", "result": 46.2, "unit": "µM"}, {"measurement": "TGI", "setting": "HOP-18 NSCLC", "result": 75.4, "unit": "µM"}, {"measurement": "TGI", "setting": "RXF-631 renal", "result": 49, "unit": "µM"}, {"measurement": "TGI", "setting": "KM20L2 colon", "result": 35.7, "unit": "µM"}]}, {"molecule": "COc1cc2cc[n+]3c(C)c4cc(OC)c(OC)cc4c([O-])c3c2cc1OC", "values": [{"measurement": "TGI", "setting": "M19-MEL melanoma", "result": "> 100", "unit": "µM"}, {"measurement": "TGI", "setting": "XF 498 CNS", "result": 82.1, "unit": "µM"}, {"measurement": "TGI", "setting": "LXFL 529 NSCLC", "result": "> 100", "unit": "µM"}, {"measurement": "TGI", "setting": "KM20L2 colon", "result": "> 100", "unit": "µM"}]}, {"molecule": "O=C1C(=O)c2ccccc2C(O)=C1CCCc1ccc(Oc2ccccc2)cc1", "values": [{"measurement": "TGI", "setting": "M19-MEL melanoma", "result": 37.9, "unit": "µM"}, {"measurement": "TGI", "setting": "XF 498 CNS", "result": 66.1, "unit": "µM"}, {"measurement": "TGI", "setting": "LXFL 529 NSCLC", "result": "> 100", "unit": "µM"}, {"measurement": "TGI", "setting": "KM20L2 colon", "result": 73.2, "unit": "µM"}]}, {"molecule": "CC1(c2ccc[n+](Cc3ccccc3)c2)OCCO1", "values": [{"measurement": "TGI", "setting": "M19-MEL melanoma", "result": "> 100", "unit": "µM"}, {"measurement": "TGI", "setting": "HOP-18 NSCLC", "result": "> 100", "unit": "µM"}, {"measurement": "TGI", "setting": "LXFL 529 NSCLC", "result": "> 100", "unit": "µM"}, {"measurement": "TGI", "setting": "KM20L2 colon", "result": "> 100", "unit": "µM"}]}, {"molecule": "Cc1nc2c(sc(=S)n2-c2ccccc2)c(=O)[nH]1", "values": [{"measurement": "TGI", "setting": "HOP-18 NSCLC", "result": "> 100", "unit": "µM"}, {"measurement": "TGI", "setting": "LXFL 529 NSCLC", "result": "> 100", "unit": "µM"}]}, {"molecule": "COc1ccc(C(=O)Cc2ccc(Br)cc2)cc1OC", "values": [{"measurement": "TGI", "setting": "M19-MEL melanoma", "result": "> 100", "unit": "µM"}, {"measurement": "TGI", "setting": "XF 498 CNS", "result": 71, "unit": "µM"}, {"measurement": "TGI", "setting": "HOP-18 NSCLC", "result": "> 100", "unit": "µM"}, {"measurement": "TGI", "setting": "LXFL 529 NSCLC", "result": "> 100", "unit": "µM"}, {"measurement": "TGI", "setting": "RXF-631 renal", "result": "> 100", "unit": "µM"}, {"measurement": "TGI", "setting": "KM20L2 colon", "result": "> 100", "unit": "µM"}]}, {"molecule": "COc1ccc(C2N(NC(=O)c3ccncc3)C(=O)CS2(=O)=O)cc1F", "note": "(stereo not drawn)", "values": [{"measurement": "TGI", "setting": "XF 498 CNS", "result": "> 100", "unit": "µM"}, {"measurement": "TGI", "setting": "HOP-18 NSCLC", "result": "> 100", "unit": "µM"}, {"measurement": "TGI", "setting": "LXFL 529 NSCLC", "result": "> 100", "unit": "µM"}, {"measurement": "TGI", "setting": "RXF-631 renal", "result": "> 100", "unit": "µM"}]}]}
